Reference: publication PMC11259170, “Small-molecule probe for IBD risk variant GPR65 I231L alters cytokine signaling networks through positive allosteric modulation” (Science Advances, 2024)
Read-outs that look alike come from different tables or passages of the source.

Assays:
hGPR65 = molecular target: T1, hGPR65 (Homo sapiens, UniProt Q8IYL9); assay: cAMP detection in HeLa expression cell line, hGPR65; format: cell-based; conditions: for Emax: HeLa, relative to 100uM forskolin (100%) and DMSO (0%), read-out: hGPR Max Activity %
T1 construct: expressed in transfected cells; host or cells: HeLa (ATCC CCL-2), lentiviral transduction, pLX317
T1 sequence (Q8IYL9 whole entry): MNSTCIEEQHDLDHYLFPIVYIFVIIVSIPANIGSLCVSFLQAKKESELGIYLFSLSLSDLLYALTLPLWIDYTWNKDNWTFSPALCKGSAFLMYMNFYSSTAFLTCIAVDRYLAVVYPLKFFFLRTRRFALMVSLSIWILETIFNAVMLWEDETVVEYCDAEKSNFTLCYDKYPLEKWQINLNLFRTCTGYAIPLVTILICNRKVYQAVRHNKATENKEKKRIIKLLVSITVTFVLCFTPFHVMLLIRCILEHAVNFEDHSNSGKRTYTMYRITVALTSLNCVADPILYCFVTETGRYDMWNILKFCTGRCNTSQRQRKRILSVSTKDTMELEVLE
How it was run: (§1)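 TR-FRET cAMP read-out (Lance Ultra; ex 337 nm, em 620 and 665 nm) after 1 h detection in the dark, following a 30 min RT stimulation of 1500 cells per well in pH 7.2 stimulation buffer with compound supplied as 10 mM DMSO stock. Cells: lentivirally transduced HeLa lines carrying V5-tagged GPCR or GFP, kept under 3 μg/ml puromycin.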

mGPR65 = molecular target: T2, mGPR65 (Mus musculus, UniProt Q61038); assay: cAMP detection in HeLa expression cell line, mGPR65; format: cell-based; conditions: for Emax: HeLa, relative to 100uM forskolin (100%) and DMSO (0%), read-out: mGPR Max Activity %; for EC50: mGPR EC50 (uM)
T2 construct: expressed in transfected cells; host or cells: HeLa (ATCC CCL-2), lentiviral transduction, pLX317
T2 sequence (Q61038 whole entry): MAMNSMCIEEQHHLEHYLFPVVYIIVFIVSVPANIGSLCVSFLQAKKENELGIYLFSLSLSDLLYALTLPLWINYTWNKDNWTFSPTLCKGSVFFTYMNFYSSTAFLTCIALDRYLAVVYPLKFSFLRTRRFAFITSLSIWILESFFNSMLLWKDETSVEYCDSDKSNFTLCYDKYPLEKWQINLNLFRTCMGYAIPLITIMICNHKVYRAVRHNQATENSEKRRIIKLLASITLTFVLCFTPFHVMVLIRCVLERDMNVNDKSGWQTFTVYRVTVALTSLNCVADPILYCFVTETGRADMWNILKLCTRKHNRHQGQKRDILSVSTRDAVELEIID
How it was run: as §1

human GPR4 (hGPR4) = molecular target: T3, human GPR4 (hGPR4) (Homo sapiens, UniProt P46093); assay: cAMP detection in HeLa expression cell line, hGPR4; format: cell-based; conditions: for EC50: pH 7.2, 30 min
T3 construct: expressed in transfected cells; host or cells: HeLa (ATCC CCL-2), lentiviral transduction, pLX317
T3 sequence (P46093 whole entry): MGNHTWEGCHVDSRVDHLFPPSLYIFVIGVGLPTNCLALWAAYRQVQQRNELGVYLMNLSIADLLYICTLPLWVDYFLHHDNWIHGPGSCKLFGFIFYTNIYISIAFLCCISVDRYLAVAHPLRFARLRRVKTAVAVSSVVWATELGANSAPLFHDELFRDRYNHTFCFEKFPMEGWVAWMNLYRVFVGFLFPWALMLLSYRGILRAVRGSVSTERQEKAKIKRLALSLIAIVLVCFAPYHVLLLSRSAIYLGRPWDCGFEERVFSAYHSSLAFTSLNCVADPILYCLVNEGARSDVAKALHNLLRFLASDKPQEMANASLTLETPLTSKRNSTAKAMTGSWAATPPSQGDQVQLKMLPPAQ
Experimental: (§2) HeLa stable expression cell lines were produced by lentiviral transduction. Briefly, lentiviral plasmids for each GPCR with a C-terminal V5 Tag ([…]) were made in a pLX317 backbone using competent Escherichia coli (New England Biolabs, C3050H). Lenti-X 293 T (Takara, 632810) cells were transfected with the lentiviral plasmids to produce virus. Low-passage HeLa cells (American Type Culture Collection, CCL-2) were then transduced with lentivirus. After 48 hours, HeLa cells were cultured under selection with puromycin (3 μg/ml) and allowed to recover and expand before storing stocks in liquid nitrogen.
(§3) cAMP was measured in cells using the Lance Ultra cAMP Kit. HeLa cells were cultured under puromycin (3 μg/ml) selection. One day before the experiment, cells were seeded in T75 flasks and allowed to adhere overnight. On the day of the experiment, cells were washed twice with Dulbecco’s PBS and lifted using prewarmed 1× versene solution (Gibco, 15040066). Cells were counted in HBSS (Gibco, 14025092) and then resuspended in stimulation buffer prepared according to the manufacturer’s instructions and adjusted to pH 7.2 using 1 M sodium hydroxide. Cells were added to the plate at a density of 1500 cells per well in white opaque 384-well assay ready microplates containing 100 nl of 10 mM compound in DMSO. Cells were stimulated for 30 min at RT, then lysed and incubated with detection reagents for 1 hour in the dark at RT. Plates were read on BMG Labtech PHERAstar FSX (excitation, 337 nm; emission, 620 and 665 nm). Data analysis was performed using GraphPad Prism.

hGPR65-SmBiT = molecular target: T4, hGPR65-SmBiT (Homo sapiens, UniProt Q8IYL9); assay: Nano-BiT target engagement, LgBiT-mGs recruitment to hGPR65-SmBiT in Expi293F cells; format: cell-based; conditions: 10 μM
T4 construct: expressed in transfected cells; host or cells: Expi293F (Gibco), transient transfection
T4 sequence (Q8IYL9 whole entry): as the sequence (Q8IYL9 whole entry) above
Experimental: (§4) Target engagement was measured in Expi293F (Gibco, 100044202) cells using the Nano-Glo Live Cell Assay System (Promega, N2011). Nano-BiT plasmids were cloned from GPR65-, GPR4-, and GPR68-Tango plasmids. GPR65-Tango (Addgene plasmid # 66370; http://n2t.net/addgene:66370; RRID:Addgene_66370), GPR4-Tango (Addgene plasmid # 66358; http://n2t.net/addgene:66358; RRID:Addgene_66358), and GPR68-Tango (Addgene plasmid # 66371; http://n2t.net/addgene:66371; RRID:Addgene_66371) were gifts from Bryan Roth. Expi293F cells were transfected 1 day before kinetics with 500 ng of each plasmid using ExpiFectamine 293 Transfection Kit (Gibco, A14525). After 24 hours, cells were collected, washed, and resuspended in room temperature 0.1% PBS-BSA, adjusted to pH 7.4 using 1 M NaOH. Cells were transferred to white opaque 96-well microplates (100 μl per well, PerkinElmer, 6005290), followed by addition of the Nano-Glo Live Cell Reagent (25 μl per well). Baseline luminescence was measured for 10 cycles (1 cycle = 90 s) before adding compounds. All luminescence measurements were made on BMG Labtech PHERAstar FSX. Data analysis was performed using GraphPad Prism.

mGPR65-SmBiT = molecular target: T5, mGPR65-SmBiT (Mus musculus, UniProt Q61038); assay: Nano-BiT target engagement, LgBiT-mGs recruitment to mGPR65-SmBiT; format: cell-based; conditions: 10 μM
T5 construct: expressed in transfected cells; host or cells: Expi293F (Gibco), transient transfection
T5 sequence (Q61038 whole entry): as the sequence (Q61038 whole entry) above
Experimental: as §4

hGPR4-SmBiT = molecular target: T6, hGPR4-SmBiT (Homo sapiens, UniProt P46093); assay: Nano-BiT target engagement, LgBiT-mGs recruitment to hGPR4-SmBiT; format: cell-based; conditions: 10 μM
T6 construct: expressed in transfected cells; host or cells: Expi293F (Gibco), transient transfection
T6 sequence (P46093 whole entry): as the sequence (P46093 whole entry) above
Experimental: as §4

[1] = Solubility in phosphate buffer; format: physicochemical; conditions: read-out: Solubility
Lipophilicity (logD) = format: physicochemical; conditions: pH 7.4; pH7.4; read-out: LogD (pH7.4)
[2] = system: GFP-expressing HeLa cells; assay: cAMP detection in HeLa expression cell line, GFP control; format: cell-based, human; conditions: Homo sapiens, HeLa, 2nd GFP column pair; relative to 100uM forskolin (100%) and DMSO (0%); NA = no activity; read-out: GFP Max Activity %
Experimental: as §2, §3

[3] = Comment on solubility in SAR table; format: physicochemical
Text: Supplement sciadv.adn2339_data_s1_to_s4.zip/sciadv.adn2339_data_s2.xlsx, sheet "SAR cAMP Assay"

[4] = 1st hGPR column pair, NA = no activity
[5] = 2nd hGPR column pair, NA = no activity
[6] = hGPR EC50 (uM), NA = no activity
[7] = 2nd mGPR column pair, NA = no activity
[8] = first pair of columns, pH 7.2, 30 min
[9] = second pair of columns, pH 7.2, 30 min

Row | Structure (SMILES) | Emax (hGPR65; [4]) [%] | Emax (hGPR65; [5]) [%] | EC50 (hGPR65; [6]) [µM] | EC50 (hGPR65; hGPR EC50 (uM), pH 7.2, 30 min) [µM] | EC50 (hGPR65; hGPR EC50, NA = no activity) [µM] | EC50 (hGPR65; hGPR EC50, pH 7.2, 30 min) [µM] | cAMP activity, hGPR65 (hGPR65; pH 7.2) | Emax (mGPR65; [7]) [%] | Emax (mGPR65; NA = no activity) [%] | EC50 (mGPR65; [7]) [µM] | EC50 (mGPR65; [8]) [µM] | EC50 (mGPR65; [9]) [µM] | EC50 (mGPR65; NA = no activity) [µM] | cAMP activity, mGPR65 (mGPR65; pH 7.2) | EC50 (human GPR4 (hGPR4); GPR4 EC50 (uM)) [µM] | solubility [1] [µM] | logD (Lipophilicity (logD)) | also measured
1 | COCc1ccc(-c2cc(O)n3ncc(C(=O)Nc4ccc(C(C)C)cc4)c3n2)cc1 [BRD2166, COCc1ccc(cc1)-c1cc(O)n2ncc(C(=O)Nc3ccc(cc3)C(C)C)c2n1] | 75 | 73.7 | 2.08 | 2.94 | 2.12 | 2.85 | at least 40% | 31.2 | 39.3 | 0.347 | 0.618 | 0.372 | 0.362 | at least 40% |  |  |  | cAMP production relative to BRD2813, hGPR65 (hGPR65; pH 7.2): little effect on cAMP production; cAMP relative to DMSO in the hGPR4 cells (human GPR4 (hGPR4); highest concentration tested): decrease in cAMP
2 | Cc1ccc(NC(=O)c2cnn3c(O)cc(-c4ccc(COC(C)C)c(Cl)c4)nc23)cc1 [BRD5059, O=C(NC1=CC=C(C)C=C1)C2=C3N(N=C2)C(O)=CC(C4=CC=C(COC(C)C)C(Cl)=C4)=N3] | 76 | 75.4 | 0.577 | 0.478 | 0.288 | 0.618 | at least 40% | 42.2 | 51 | 0.379 | 0.591 | 0.546 | 0.505 | at least 40% | 1.68 | < 1.56 | > 5.25 | activity for hGPR65 among prioritized molecules (hGPR65; 1.56 μM, pH 7.2): highest activity; activity for mGPR65 among prioritized molecules (mGPR65; 1.56 μM, pH 7.2): highest activity; mGs recruitment / engagement of hGPR65 (hGPR65-SmBiT): showed engagement; activity after HCl versus water, hGPR65 (hGPR65-SmBiT; HCl or H2O at cycle 10): showed activity when preceded by the addition of HCl but not water; mGs recruitment / engagement of mGPR65 (mGPR65-SmBiT): showed engagement; activity after HCl versus water, mGPR65 (mGPR65-SmBiT; HCl or H2O at cycle 10): showed activity when preceded by the addition of HCl but not water; response in cells expressing hGPR4-SmBiT (hGPR4-SmBiT): failing to elicit responses
3 | Cc1ccc(NC(=O)c2cnn3c(O)cc(-c4ccc(F)c(Cl)c4)nc23)cc1 [BRD5067, O=C(NC1=CC=C(C)C=C1)C2=C3N(N=C2)C(O)=CC(C4=CC=C(F)C(Cl)=C4)=N3] | 74.6 | 69.2 | 0.232 | 0.534 | 0.583 | 0.554 | at least 40% | 37.6 | 41.4 | 0.537 | 0.449 | 0.23 | 0.328 | at least 40% | 0.494 | < 1.56 | > 4.89 | EC50 (human GPR4 (hGPR4); GPR4 EC50, second pair of columns): 0.687 µM; cAMP induction in the hGPR4 cell line (human GPR4 (hGPR4); pH 7.2): additionally induced cAMP; Emax [2]: 1.17%
4 | Cc1ccc(NC(=O)c2cnn3c(O)cc(-c4ccc(-c5ccncc5)cc4)nc23)cc1 [BRD0844] |  |  |  |  |  |  |  |  |  |  |  |  |  |  |  |  |  | Emax (hGPR65; first pair): 30.3%; EC50 (hGPR65; SAR cAMP assay, first EC50/Max pair of hGPR columns, read-out: hGPR EC50): 7.97 µM; Comments (solubility) [3]: Poor solubility.
